Source: patent US8207221B2, “Crystalline polymorphs of a CXC-chemokine receptor ligand” (Schering Corporation, priority 2004, dated 2012)

Tested on: CXC-chemokine receptor
Test: activity as a CXC-chemokine receptor ligand
Conditions: qualitative statement, no method or figures given

Row | Compound | activity as a CXC-chemokine receptor ligand
1 | CC[C@@H](Nc1c(Nc2cccc(C(=O)N(C)C)c2O)c(=O)c1=O)c1ccc(C)o1 [Anhydrous Compound A] | particularly active
2 | CC[C@@H](Nc1c(Nc2cccc(C(=O)N(C)C)c2O)c(=O)c1=O)c1ccc(C)o1 [monohydrate form of Compound A] | substantially similar activity
